Reference: patent publication US4508663A, “Process for preparing thiosulfenamide derivatives of N-phosphonomethylglycinonitriles” (Monsanto Company, priority 1983, dated 1985)

Legend:
Experiment in all cases: post-emergence herbicidal activity, greenhouse
Assay type in all cases: in vivo
Barnyardgrass = tested on: Barnyardgrass
Outline: (§1)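 Plants grown from seed or perennial propagules in greenhouse soil pans were sprayed at two to three weeks with compound solution or suspension containing about 0.4% emulsifier, at the stated application rates. Injury relative to untreated controls was scored at approximately two and four weeks after treatment on a post-emergence activity index.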

Yellow Nutsedge = settings: Table I, 4 WAT
Outline: as §1

Cocklebur = tested on: Cocklebur
Outline: as §1

Morningglory = tested on: Morningglory
Outline: as §1

Wild Buckwheat = settings: Table II
Outline: as §1

Johnsongrass = settings: Table I, 4 WAT
Outline: as §1

Sorghum = settings: Table II
Outline: as §1

Canada Thistle = settings: Table I, 4 WAT
Outline: as §1

Downy Brome = tested on: Downy Brome
Outline: as §1

Rice = settings: Table II
Outline: as §1

Crabgrass = settings: Table II
Outline: as §1

Velvetleaf = tested on: Velvetleaf
Outline: as §1

Hemp Sesbania = settings: Table II
Outline: as §1

Quackgrass = settings: Table I, 4 WAT
Outline: as §1

Soybean = settings: Table II
Outline: as §1

Panicum Spp = settings: Table II
Outline: as §1

Sugar Beet = settings: Table II
Outline: as §1

Lambsquarters = tested on: Lambsquarters
Outline: as §1

Smartweed = settings: Table I, 4 WAT
Outline: as §1

Wheat = settings: Table II
Outline: as §1

CC(C)SSN(CC#N)CP(=O)(Oc1ccccc1)Oc1ccccc1 [VI, Phosphonic acid, [[(cyanomethyl)[(1-methylethyl)-dithio]amino]methyl]-, diphenyl ester]
post-emergence herbicidal activity index (Barnyardgrass; Table I, 4 WAT, 5.6 kg/h): 2 (50-74% control)
post-emergence herbicidal activity index (Barnyardgrass; Table I, 4 WAT, 11.2 kg/h): 2 (50-74% control)
post-emergence herbicidal activity index (Barnyardgrass; Table II, 2 WAT, 1.12 kg/h): 1 (25-49% control)
post-emergence herbicidal activity index (Barnyardgrass; Table II, 2 WAT, 5.6 kg/h): 2 (50-74% control)
post-emergence herbicidal activity index (Barnyardgrass; Table II, 4 WAT, 0.28 kg/h): 0 (0-24% control)
post-emergence herbicidal activity index (Barnyardgrass; Table II, 4 WAT, 1.12 kg/h): 0 (0-24% control)
post-emergence herbicidal activity index (Barnyardgrass; Table II, 4 WAT, 5.6 kg/h): 3 (75-99% control)
post-emergence herbicidal activity index (Yellow Nutsedge; 5.6 kg/h): 0 (0-24% control)
post-emergence herbicidal activity index (Yellow Nutsedge; 11.2 kg/h): 3 (75-99% control)
post-emergence herbicidal activity index (Cocklebur; Table I, 4 WAT, 5.6 kg/h): 2 (50-74% control)
post-emergence herbicidal activity index (Cocklebur; Table I, 4 WAT, 11.2 kg/h): 2 (50-74% control)
post-emergence herbicidal activity index (Cocklebur; Table II, 2 WAT, 1.12 kg/h): 1 (25-49% control)
post-emergence herbicidal activity index (Cocklebur; Table II, 2 WAT, 5.6 kg/h): 2 (50-74% control)
post-emergence herbicidal activity index (Cocklebur; Table II, 4 WAT, 0.28 kg/h): 0 (0-24% control)
post-emergence herbicidal activity index (Cocklebur; Table II, 4 WAT, 1.12 kg/h): 1 (25-49% control)
post-emergence herbicidal activity index (Cocklebur; Table II, 4 WAT, 5.6 kg/h): 3 (75-99% control)
post-emergence herbicidal activity index (Morningglory; Table I, 4 WAT, 5.6 kg/h): 2 (50-74% control)
post-emergence herbicidal activity index (Morningglory; Table I, 4 WAT, 11.2 kg/h): 2 (50-74% control)
post-emergence herbicidal activity index (Morningglory; Table II, 2 WAT, 1.12 kg/h): 1 (25-49% control)
post-emergence herbicidal activity index (Morningglory; Table II, 2 WAT, 5.6 kg/h): 1 (25-49% control)
post-emergence herbicidal activity index (Morningglory; Table II, 4 WAT, 0.28 kg/h): 0 (0-24% control)
post-emergence herbicidal activity index (Morningglory; Table II, 4 WAT, 1.12 kg/h): 0 (0-24% control)
post-emergence herbicidal activity index (Morningglory; Table II, 4 WAT, 5.6 kg/h): 1 (25-49% control)
post-emergence herbicidal activity index (Wild Buckwheat; 2 WAT, 1.12 kg/h): 0 (0-24% control)
post-emergence herbicidal activity index (Wild Buckwheat; 2 WAT, 5.6 kg/h): 1 (25-49% control)
post-emergence herbicidal activity index (Wild Buckwheat; 4 WAT, 0.28 kg/h): 0 (0-24% control)
post-emergence herbicidal activity index (Wild Buckwheat; 4 WAT, 1.12 kg/h): 0 (0-24% control)
post-emergence herbicidal activity index (Wild Buckwheat; 4 WAT, 5.6 kg/h): 1 (25-49% control)
post-emergence herbicidal activity index (Johnsongrass; 5.6 kg/h): 3 (75-99% control)
post-emergence herbicidal activity index (Johnsongrass; 11.2 kg/h): 3 (75-99% control)
post-emergence herbicidal activity index (Sorghum; 2 WAT, 1.12 kg/h): 1 (25-49% control)
post-emergence herbicidal activity index (Sorghum; 2 WAT, 5.6 kg/h): 2 (50-74% control)
post-emergence herbicidal activity index (Sorghum; 4 WAT, 0.28 kg/h): 0 (0-24% control)
post-emergence herbicidal activity index (Sorghum; 4 WAT, 1.12 kg/h): 1 (25-49% control)
post-emergence herbicidal activity index (Sorghum; 4 WAT, 5.6 kg/h): 3 (75-99% control)
post-emergence herbicidal activity index (Canada Thistle; 5.6 kg/h): 2 (50-74% control)
post-emergence herbicidal activity index (Canada Thistle; 11.2 kg/h): 2 (50-74% control)
post-emergence herbicidal activity index (Downy Brome; Table I, 4 WAT, 5.6 kg/h): 2 (50-74% control)
post-emergence herbicidal activity index (Downy Brome; Table I, 4 WAT, 11.2 kg/h): 3 (75-99% control)
post-emergence herbicidal activity index (Downy Brome; Table II, 2 WAT, 1.12 kg/h): 0 (0-24% control)
post-emergence herbicidal activity index (Downy Brome; Table II, 2 WAT, 5.6 kg/h): 2 (50-74% control)
post-emergence herbicidal activity index (Downy Brome; Table II, 4 WAT, 0.28 kg/h): 0 (0-24% control)
post-emergence herbicidal activity index (Downy Brome; Table II, 4 WAT, 1.12 kg/h): 0 (0-24% control)
post-emergence herbicidal activity index (Downy Brome; Table II, 4 WAT, 5.6 kg/h): 2 (50-74% control)
post-emergence herbicidal activity index (Rice; 2 WAT, 1.12 kg/h): 0 (0-24% control)
post-emergence herbicidal activity index (Rice; 2 WAT, 5.6 kg/h): 0 (0-24% control)
post-emergence herbicidal activity index (Rice; 4 WAT, 0.28 kg/h): 0 (0-24% control)
post-emergence herbicidal activity index (Rice; 4 WAT, 1.12 kg/h): 0 (0-24% control)
post-emergence herbicidal activity index (Rice; 4 WAT, 5.6 kg/h): 0 (0-24% control)
post-emergence herbicidal activity index (Crabgrass; 2 WAT, 1.12 kg/h): 1 (25-49% control)
post-emergence herbicidal activity index (Crabgrass; 2 WAT, 5.6 kg/h): 3 (75-99% control)
post-emergence herbicidal activity index (Crabgrass; 4 WAT, 0.28 kg/h): 1 (25-49% control)
post-emergence herbicidal activity index (Crabgrass; 4 WAT, 1.12 kg/h): 1 (25-49% control)
post-emergence herbicidal activity index (Crabgrass; 4 WAT, 5.6 kg/h): 3 (75-99% control)
post-emergence herbicidal activity index (Velvetleaf; Table I, 4 WAT, 5.6 kg/h): 1 (25-49% control)
post-emergence herbicidal activity index (Velvetleaf; Table I, 4 WAT, 11.2 kg/h): 2 (50-74% control)
post-emergence herbicidal activity index (Velvetleaf; Table II, 2 WAT, 1.12 kg/h): 0 (0-24% control)
post-emergence herbicidal activity index (Velvetleaf; Table II, 2 WAT, 5.6 kg/h): 1 (25-49% control)
post-emergence herbicidal activity index (Velvetleaf; Table II, 4 WAT, 0.28 kg/h): 0 (0-24% control)
post-emergence herbicidal activity index (Velvetleaf; Table II, 4 WAT, 1.12 kg/h): 1 (25-49% control)
post-emergence herbicidal activity index (Velvetleaf; Table II, 4 WAT, 5.6 kg/h): 2 (50-74% control)
post-emergence herbicidal activity index (Hemp Sesbania; 2 WAT, 1.12 kg/h): 0 (0-24% control)
post-emergence herbicidal activity index (Hemp Sesbania; 2 WAT, 5.6 kg/h): 1 (25-49% control)
post-emergence herbicidal activity index (Hemp Sesbania; 4 WAT, 0.28 kg/h): 0 (0-24% control)
post-emergence herbicidal activity index (Hemp Sesbania; 4 WAT, 1.12 kg/h): 0 (0-24% control)
post-emergence herbicidal activity index (Hemp Sesbania; 4 WAT, 5.6 kg/h): 1 (25-49% control)
post-emergence herbicidal activity index (Quackgrass; 5.6 kg/h): 0 (0-24% control)
post-emergence herbicidal activity index (Quackgrass; 11.2 kg/h): 1 (25-49% control)
post-emergence herbicidal activity index (Soybean; 2 WAT, 1.12 kg/h): 0 (0-24% control)
post-emergence herbicidal activity index (Soybean; 2 WAT, 5.6 kg/h): 1 (25-49% control)
post-emergence herbicidal activity index (Soybean; 4 WAT, 0.28 kg/h): 0 (0-24% control)
post-emergence herbicidal activity index (Soybean; 4 WAT, 1.12 kg/h): 0 (0-24% control)
post-emergence herbicidal activity index (Soybean; 4 WAT, 5.6 kg/h): 1 (25-49% control)
post-emergence herbicidal activity index (Panicum Spp; 2 WAT, 1.12 kg/h): 0 (0-24% control)
post-emergence herbicidal activity index (Panicum Spp; 2 WAT, 5.6 kg/h): 1 (25-49% control)
post-emergence herbicidal activity index (Panicum Spp; 4 WAT, 0.28 kg/h): 0 (0-24% control)
post-emergence herbicidal activity index (Panicum Spp; 4 WAT, 1.12 kg/h): 0 (0-24% control)
post-emergence herbicidal activity index (Panicum Spp; 4 WAT, 5.6 kg/h): 1 (25-49% control)
post-emergence herbicidal activity index (Sugar Beet; 2 WAT, 1.12 kg/h): 0 (0-24% control)
post-emergence herbicidal activity index (Sugar Beet; 2 WAT, 5.6 kg/h): 0 (0-24% control)
post-emergence herbicidal activity index (Sugar Beet; 4 WAT, 0.28 kg/h): 0 (0-24% control)
post-emergence herbicidal activity index (Sugar Beet; 4 WAT, 1.12 kg/h): 0 (0-24% control)
post-emergence herbicidal activity index (Sugar Beet; 4 WAT, 5.6 kg/h): 1 (25-49% control)
post-emergence herbicidal activity index (Lambsquarters; Table I, 4 WAT, 5.6 kg/h): 3 (75-99% control)
post-emergence herbicidal activity index (Lambsquarters; Table I, 4 WAT, 11.2 kg/h): 4 (100% control)
post-emergence herbicidal activity index (Lambsquarters; Table II, 2 WAT, 1.12 kg/h): 3 (75-99% control)
post-emergence herbicidal activity index (Lambsquarters; Table II, 2 WAT, 5.6 kg/h): 3 (75-99% control)
post-emergence herbicidal activity index (Lambsquarters; Table II, 4 WAT, 0.28 kg/h): 0 (0-24% control)
post-emergence herbicidal activity index (Lambsquarters; Table II, 4 WAT, 1.12 kg/h): 3 (75-99% control)
post-emergence herbicidal activity index (Lambsquarters; Table II, 4 WAT, 5.6 kg/h): 3 (75-99% control)
post-emergence herbicidal activity index (Smartweed; 5.6 kg/h): 2 (50-74% control)
post-emergence herbicidal activity index (Smartweed; 11.2 kg/h): 2 (50-74% control)
post-emergence herbicidal activity index (Wheat; 2 WAT, 1.12 kg/h): 1 (25-49% control)
post-emergence herbicidal activity index (Wheat; 2 WAT, 5.6 kg/h): 1 (25-49% control)
post-emergence herbicidal activity index (Wheat; 4 WAT, 0.28 kg/h): 0 (0-24% control)
post-emergence herbicidal activity index (Wheat; 4 WAT, 1.12 kg/h): 0 (0-24% control)
post-emergence herbicidal activity index (Wheat; 4 WAT, 5.6 kg/h): 1 (25-49% control)
